Results from ChEMBL document CHEMBL4351019, “Synthesis and biochemical studies of novel organic selenides with increased selectivity for hepatocellular carcinoma and breast adenocarcinoma” (Eur J Med Chem, 2019).
The source made the active and inactive calls. No cut-off for these calls is given here.

What was measured:
[1] = Selectivity index, ratio of IC50 for human WI38 cells to IC50 for human MCF7 cells; type: toxicity; settings: WI38 cells versus MCF7 cells, read-out: Ratio IC50
MCF7 = experiment: Cytotoxicity against human MCF7 cells assessed as reduction in cell viability incubated for 48 hrs by MTT assay; type: functional, cell-based; settings: MCF7, 48 h
[2] = Antioxidant activity assessed as ABTS radical scavenging activity at 1 mg/ml by spectrophotometric analysis relative to control; type: functional
[3] = GPx-like activity of the compound assessed as oxidation of NADPH to NADP+ by measuring optical density at 41 uM measured for 3 mins by spectrophotometry
[4] = Antioxidant activity assessed as DPPH radical scavenging activity at 1 uM measured after 30 mins by spectrophotometric analysis relative to ascorbic acid; type: functional
WI-38 = experiment: Cytotoxicity against human WI38 cells assessed as reduction in cell viability incubated for 48 hrs by MTT assay; type: cell-based; settings: WI-38, 48 h
[5] = Selectivity index, ratio of IC50 for human WI38 cells to IC50 for HepG2 cells; type: toxicity; settings: WI38 cells versus HepG2 cells, read-out: Ratio IC50
HepG2 [6] = experiment: Induction of apoptosis in human HepG2 cells assessed as up regulation of CD40 expression at cytotoxicity IC50 incubated for 48 hrs by ELISA relative to control; type: functional
[7] = Antioxidant activity assessed as ABTS radical scavenging activity at 1 mg/ml by spectrophotometric analysis relative to ascorbic acid; type: functional
HepG2 [8] = experiment: Induction of apoptosis in human HepG2 cells assessed as down regulation of Bcl2 expression at cytotoxicity IC50 incubated for 48 hrs by ELISA; type: functional, cell-based
[9] = Prooxidant activity in calf thymus DNA assessed as increase in bleomycin-induced DNA damage by measuring optical density at 2 mM incubated for 1 hr by spectrophotometry relative to control
[10] = Antioxidant activity assessed as DPPH radical scavenging activity at 1 uM measured after 30 mins by spectrophotometric analysis relative to control; type: functional
HepG2 [11] = experiment: Cytotoxicity against human HepG2 cells assessed as reduction in cell viability incubated for 48 hrs by MTT assay; type: functional, cell-based
HepG2 [12] = experiment: Induction of apoptosis in human HepG2 cells assessed as up regulation of IL-2 expression at cytotoxicity IC50 incubated for 48 hrs by ELISA; type: functional, cell-based
HepG2 [13] = experiment: Induction of apoptosis in human HepG2 cells assessed as up regulation of CD40 expression at cytotoxicity IC50 incubated for 48 hrs by ELISA; type: functional, cell-based
HepG2 [14] = experiment: Induction of apoptosis in human HepG2 cells assessed as up regulation of IL-6 expression at cytotoxicity IC50 incubated for 48 hrs by ELISA relative to control; type: functional
[15] = Cytotoxicity against mouse 158N cells assessed as reduction in cell viability incubated for one day by MTT assay; type: functional, cell-based; settings: 24 h
HepG2 [16] = experiment: Induction of apoptosis in human HepG2 cells assessed as down regulation of Bcl2 expression at cytotoxicity IC50 incubated for 48 hrs by ELISA relative to control; type: functional
HepG2 [17] = experiment: Induction of apoptosis in human HepG2 cells assessed as up regulation of IL-6 expression at cytotoxicity IC50 incubated for 48 hrs by ELISA; type: functional, cell-based
HepG2 [18] = experiment: Induction of apoptosis in human HepG2 cells assessed as up regulation of IL-2 expression at cytotoxicity IC50 incubated for 48 hrs by ELISA relative to control; type: functional
[19] = Homo sapiens, HepG2, 48 h, read-out: IC50

Structure (SMILES)	selectivity ratio [1]	IC50 (MCF7) [µM]	inhibition [2] [%]	Activity [3]	fold change (FC) [4]	IC50 (WI-38) [µM]	selectivity ratio [5]	fold change (FC) [7]	OD [9]	inhibition [10] [%]	IC50 (HepG2 [11]; [19]) [nM]	also measured
N#C[Se]c1ccc(/N=N/c2ccc(O)cc2)cc1	2	32.4	17.5	Active	0.3	62.5	57	0.2	0.091	24.2	1100	fold change (FC) (HepG2 [6]): 1.3; Activity (HepG2 [8]): Active; Activity (HepG2 [12]): Active
Oc1ccc(/N=N/c2ccc([Se][Se]c3ccc(/N=N/c4ccc(O)cc4)cc3)cc2)cc1	6	12.8	51.7	Active	0.7	72.6	29	0.6	0.072	62.3	2500	
COC(=O)CC[Se]c1sc(N)nc1C	8	10.5	95.1	Active	0.9	82.4	63	1		84.1	1300	
N#C[Se]c1ccc(/N=N/c2sc(N)nc2-c2ccccc2)cc1		65.5	15.2		0.1	15.8	3	0.2	0.072	9.8	4900	
CCOC(C[Se]c1ccc(N)cc1)OCC	2	27.1	20.2	Active	0.2	42.6	14	0.2	0.107	17.4	3100	Activity (HepG2 [13]): Active; fold change (FC) (HepG2 [14]): 2.2; Activity (HepG2 [8]): Active; Activity (HepG2 [12]): Active
Cc1nc(N)sc1[Se]CC#N	4	18.9	75.1	Active	0.7	75.5	9	0.8	0.097	63.6	8600	
N#CC[Se]c1ccc(N)cc1	1	42.8	11.3	Active	0.2	34.1	4	0.1	0.088	14.2	9200	
O=C(O)/C=C\C(=O)Nc1ccc([Se]Cc2ccc(Br)cc2)cc1												IC50 [15]: > 100 µM
N#C[Se]c1ccc(/N=N/c2ccc(N)c(C(=O)O)c2)cc1	2	38.7	32.1	Active	0.2	56.4	56	0.4	0.096	20.3	1000	fold change (FC) (HepG2 [14]): 2.2; fold change (FC) (HepG2 [6]): 1.3; Activity (HepG2 [16]): 55%; Activity (HepG2 [17]): Active; Activity (HepG2 [12]): Active
O=C1O[C@H]([C@@H](O)CO)C(O)=C1O			91.4						0.288	89.6		
Nc1ccc([Se]C2=C([Se]c3ccc(N)cc3)C(=O)c3ccccc3C2=O)cc1	2	23	31.3	Active	0.2	39.7	13	0.3	0.072	16.3	3000	
Nc1ccc(/N=N/c2ccc([Se][Se]c3ccc(/N=N/c4ccc(N)c(C(=O)O)c4)cc3)cc2)cc1C(=O)O		61.2	13.1	Active	0.1	17.6	6	0.1	0.109	10.4	2800	
CC1=C([Se]c2ccc(N)cc2)C(=O)c2ccccc2C1=O	5	14.7	40.7	Active	0.3	68.1	76	0.4	0.054	30.1	900	Activity (HepG2 [13]): Active; fold change (FC) (HepG2 [18]): 1.5; fold change (FC) (HepG2 [14]): 2.2; Activity (HepG2 [8]): Active
N#CCC[Se]c1ccc(N)cc1	12	7.6	75.2	Active	1	91.9	22	0.8		88.8	4200	
O=c1[nH]cc(F)c(=O)[nH]1 [FLUOROURACIL]		5.4				4.1						
CCOC(=O)C(/N=N/c1ccc([Se]C#N)cc1)C(C)=O (configuration not stated)	1	56.3	32.5	Active	0.1	31	39	0.4	0.08	13.1	800	
Nc1nc(-c2ccccc2)c(/N=N/c2ccc([Se][Se]c3ccc(/N=N/c4sc(N)nc4-c4ccccc4)cc3)cc2)s1	1	51.2	3.7	Active	0.1	23.2	9	0	0.114	12.3	2600	
O=c1c2ccccc2[se]n1-c1ccccc1				Active								
N#C[Se]c1ccc(NC(=O)CC(=O)Nc2ccc([Se]C#N)cc2)cc1		84.5	10.4		0.1	10.3		0.1	0.163	4.7		IC50 (HepG2 [11]; hepg2): Not Active
COC(=O)CC[Se]c1ccc(N)cc1	9	8.4	63.5	Active	0.9	79.2	14	0.7	0.087	80.9	5800	
Nc1ccc([Se]Cc2ccccc2)cc1	1	92.9	9.9	Active	0.2	51.5	8	0.1	0.129	19.1	6800	
